Literature values in patent US11166911B2, “Parenteral dosage form of amiodarone” (SUN PHARMACEUTICAL INDUSTRIES LIMITED, priority 2016, dated 2021).

Conditions: Parmar et al. 1997

CCCCc1oc2ccccc2c1C(=O)c1cc(I)c(OCCN(CC)CC)c(I)c1 [Amidarone]
Degradation upon storage at higher temperatures: degrade significantly
